Source: patent US6410558B1, “Fungicides for the control of take-all disease of plants” (Monsanto Technology LLC, priority 1991, dated 2002)

Test system: Gaeumannomyces graminis var. tritici (Ggt)
Test: In vitro Assay: mycelial growth of Ggt on minimal media agar plates containing test compound
Assay type: cell-based
Settings: dark, 19-20° C., 4 to 5 days, diameter of mycelial growth; for inhibition at 0.1 ppm / inhibition at 1 ppm / inhibition at 10 ppm: Gaeumannomyces graminis; for inhibition at 0.1 ppm / In vitro (ppm) 0.1, Percent Inhibition: 0.1 ppm in minimal media agar; for inhibition at 0.1 ppm: read-out: In vitro (ppm) 0.1, Percent Inhibition; for inhibition at 1 ppm / In vitro (ppm) 1, Percent Inhibition: 1 ppm in minimal media agar; for inhibition at 1 ppm: read-out: In vitro (ppm) 1, Percent Inhibition; for inhibition at 10 ppm / In vitro (ppm) 10, Percent Inhibition: 10 ppm in minimal media agar; for inhibition at 10 ppm: read-out: In vitro (ppm) 10, Percent Inhibition
In short: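 Compounds added from acetone stock into minimal (Czapek Dox) agar; plates inoculated with three 4-mm Ggt plugs, incubated in dark at 19-20° C for 4 to 5 days. Colony diameter measured; Percent Inhibition = [1-((treated mm −4)/(control mm −4))]×100.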

Compound	inhibition at 0.1 ppm [%]	inhibition at 1 ppm [%]	inhibition at 10 ppm [%]	In vitro (ppm) 0.1, Percent Inhibition	In vitro (ppm) 1, Percent Inhibition	In vitro (ppm) 10, Percent Inhibition [%]
CCN(C(C)=O)C(=O)c1c(Cl)cccc1[Si](C)(C)C [Example 47, N-Acetyl-2-chloro-N-ethyl-6-(trimethylsilyl)benzamide]	< 0	< 0	70			
CCNC(=O)c1c(F)cccc1-c1ccccc1C [Example 94, N-Ethyl-2-fluoro-6-(2-methylphenyl)benzamide]	9	63	86			
CCc1cccc([Si](C)(C)C)c1C(=O)N(CC)CC [Example 44, N,N,2-Triethyl-6-(trimethylsilyl)benzamide]	< 0	< 0	39			
CCNC(=O)c1sc(C)c(C)c1[Si](C)(C)C [Example 286, 4,5-Dimethyl-N-ethyl-3-(trimethylsilyl)-2-thiophenecarboxamide]	76	93	100			
CCN(CC)C(=O)c1cccc(C)c1[Si](C)(C)C [Example 64, N,N-diethyl-3-methyl-2-(trimethylsilyl)benzamide]	20	14	31			
CCNC(=O)c1c([Si](C)(C)C)ccc(SC)c1Cl [Example 231, 2-Chloro-N-ethyl-3-(methylthio)-6-(trimethylsilyl)benzamide]	< 0	76	96			
CCNC(=O)c1c(I)cccc1[Si](C)(C)C [Example 207, N-Ethyl-2-iodo-6-(trimethylsilyl)benzamide]	31	90	97			
C=C(C)CNC(=O)c1c(Cl)cccc1[Si](C)(C)C [Example 147, 2-Chloro-N-(2-methyl-2-propenyl)-6-(trimethylsilyl)benzamide]	< 0	< 0	58			
C/C=C\NC(=O)c1c(Cl)cccc1[Si](C)(C)C [Example 112, (Z)-2-Chloro-N-1-propenyl-6-(trimethylsilyl)benzamide]	81	96	100			
C[Si](C)(C)c1cc(Cl)sc1C(=O)NCCOS(C)(=O)=O [Example 265, 5-Chloro-N-[2[(methylsulfonyl)oxy]ethyl]-3-(trimethylsilyl)-2-thiophenecarboxamide]	5	14	100			
CCNC(=O)c1oc([Si](C)(C)C)cc1[Si](C)(C)C [Example 251, N-Ethyl-3,5-bis(trimethylsilyl)-2-furancarboxamide]	3	36	97			
C/C=C/NC(=O)c1c(Cl)cccc1[Si](C)(C)C [Example 113, (E)-2-Chloro-N-1-propenyl-6-(trimethylsilyl)benzamide]	< 0	26	96			
CCNC(=O)c1cc(N=C=S)ccc1[Si](C)(C)C [Example 245, N-Ethyl-5-isothiocyanato-2-(trimethylsilyl)benzamide]	50	100	100			
CCN(COC)C(=O)c1c(C)cccc1[Si](C)(C)C [Example 127, N-Ethyl-N-(methoxymethyl)-2-methyl-6-(trimethylsilyl)benzamide]	< 0	21	74			
CC(C)N(O)C(=O)c1c(Cl)cccc1[Si](C)(C)C.[Fe+3].[OH-].[OH-].[OH-] [Example 168, 2-Chloro-N-hydroxy-N-(1-methylethyl)-6-(trimethylsilyl)benzamide, compd. with iron hydroxide (1:1)]				57%	96%	100
CCN=C(SCC)c1c(Cl)cccc1[Si](C)(C)C [Example 169, 2-Chloro-N-ethyl-6-(trimethylsilyl)benzenecarboximidothioic acid, ethyl ester]	< 0	31	100			
CCNC(=O)c1c(-c2ccccc2)cccc1[Si](C)(C)C [Example 221, N-Ethyl-2-phenyl-6-(trimethylsilyl)benzamide]	15	46	85			
C[Si](C)(C)c1cccc(Cl)c1C(=O)NC1CCC1 [Example 163, 2-Chloro-N-cyclobutyl-6-(trimethylsilyl)benzamide]	24	85	100			
CCNC(=O)c1c(Cl)cccc1[Si](C)(C)C1CCCCC1 [Example 181, 2-Chloro-6-(cyclohexyldimethylsilyl)-N-ethylbenzamide]	12	33	58			
CCN(CC)C(=O)c1c(F)cccc1[S+]([O-])C(C)(C)C (stereo not drawn) [Example 195, N,N-Diethyl 2-[(1,1-dimethylethyl)sulfinyl]-6-fluorobenzamide]	35	29	56			
CCNC(=O)c1c([Si](C)(C)C)ccc(Cl)c1Cl [Example 203, 2,3-Dichloro-N-ethyl-6-(trimethylsilyl)benzamide]	79	84	91			
COc1cccc(CNC(=O)c2c(Cl)cccc2[Si](C)(C)C)c1 [Example 139, 2-Chloro-N-[(3-methoxyphenyl)methyl]-6-(trimethylsilyl)benzamide]	11	53	100			
3-N,N-diethyl-2-(trimethylsilyl)benzamide [Example 15]				N (If the calculation resulted in “0” or less, as compared to the untreated control, a “N” is shown to indicate no control.)	N (If the calculation resulted in “0” or less, as compared to the untreated control, a “N” is shown to indicate no control.)	44
CCNC(=O)c1ccncc1[Si](C)(C)C [Example 124, N-Ethyl-3-(trimethylsilyl)-4-pyridinecarboxamide]	< 0	< 0	62			
COc1cc(CNC(=O)c2c(Cl)cccc2[Si](C)(C)C)cc(OC)c1OC [Example 140, 2-Chloro-N-[(3,4,5-trimethoxyphenyl)methyl]-6-(trimethylsilyl)benzamide]	19	19	81			
CC(C)NC(=O)c1c(F)cccc1[S+]([O-])C(C)(C)C (stereo not drawn) [Example 196, N-(1-Methylethyl)-2-[(1,1-dimethylethyl)sulfinyl]-6-fluorobenzamide]	3	56	100			
CCN(CC=CC#CC(C)(C)C)C(=O)c1c(Cl)cccc1[Si](C)(C)C [Example 104, 2-Chloro-N-(6,6-dimethyl-2-hepten-4-ynyl)-N-ethyl-6-(trimethylsilyl)benzamide]	< 0	26	71			
